According to patent US9737077B2, “Method for controlling sexuality of hop” (priority 2011, dated 2017):
Entries after “also recorded” stand apart in the source; their conditions may differ. Where two headings read alike, the source gives them in different places.

Tests used:
Cannabis sativa = details: cited from earlier work
[1] = tested on: female plant of Momordica dioica; details: Non Patent Literature 7; cited from earlier work
[2] = tested on: hop variety Kirin No. 2 (female plant); assay: Forming a male flower on a female plant bred in a greenhouse (Part 3), different chemicals
Procedure: An over-wintering plant or strain of the hop variety “Kirin No. 2” was cultivated in the same manner as in Example 2.
Silver thiosulfate (STS) was prepared by mixing sodium thiosulfate pentahydrate and silver nitrate in a molar ratio of 8:1. An area to which water was applied was arranged as a control area.
Flower buds were observed from the beginning of July and the sexuality was determined from the mid-July.

hop female plant = details: spraying 500 ppm (Non Patent Literature 1); cited from earlier work

O=[N+]([O-])[O-].[Ag+] [silver nitrate]
flowers formed on main and lateral branches (Cannabis sativa; applied to a growing shoot tip (Non Patent Literature 8)): an intersex flower, an incomplete male flower with few stamens or a complete male flower, together with female flowers, were formed | flower formed on female plant [1]: a hermaphrodite flower is formed | flower sexuality observed ([2]; 8 mM, leaf application 4 times about every 10 days, greenhouse): the female flowers were predominantly observed but the male flowers were observed in part; also recorded: female flowers and male flowers | flower sexuality observed ([2]; 16 mM, leaf application 4 times about every 10 days, greenhouse): male flowers were observed; also recorded: male flowers formed | flower sexuality observed ([2]; 32 mM, leaf application 4 times about every 10 days, greenhouse): male flowers were observed; also recorded: male flowers formed | condition of applied leaves and growth ([2]; all treated areas (all concentrations applied), greenhouse): the applied leaves were partially browned but continued growing

CC(Sc1ccccc1Cl)C(=O)[O-].[Na+] (stereo not drawn) [α (2-chlorophenylthio)propionic acid, sodium salt]
flower formed on hop female plant (hop female plant): a male flower was formed

silver thiosulfate complex [STS]
flowers formed on main and lateral branches (Cannabis sativa; in vivo): an intersex flower, an incomplete male flower with few stamens or a complete male flower, together with female flowers, were formed | condition of applied leaves and growth ([2]; in vivo): the applied leaves were partially browned but continued growing | flower sexuality observed ([2]; in vivo): the female flowers were predominantly observed but the male flowers were observed in part; also recorded: male flowers formed; also recorded: female flowers and male flowers
